# Laboratory results taken from PMC6628435, “Chemical Synthesis, Proper Folding, Nav Channel Selectivity Profile and Analgesic Properties of the Spider Peptide Phlotoxin 1” (Toxins, 2019).
# Bridge positions count the residues as written; N and C are the ends. Peptide text beside a SMILES is read from it.
# What was measured:
# Assay type in all cases: cell-based
# [1] = system: Kv3.4; assay: Ion channel selectivity screen, voltage-clamp, heterologous expression in Xenopus laevis oocytes and/or COS cells; conditions: 1 μM PhlTx1
# [2] = target: T1, hNav1.7 (Homo sapiens, UniProt Q15858); assay: Manual patch clamp, reversibility of block of hNav1.7 currents
# T1 construct: expressed in transfected cells
# Text: Following our initial screen for the selectivity of synthetic PhlTx1 and the discovery that Nav1.7 was the main target, we decided to further evaluate the activity of PhlTx1. We used a CHO mammalian cell line expressing the human Nav1.7 instead of Xenopus oocytes for the pharmacological evaluation. To this end, we used an automated patch-clamp system, the Nanion syncropatch 384PE, and a standardized robotic method from Beckmann to apply PhlTx1 in the recording chambers and collect the kinetic information of Nav1.7 current from a high number of Nav1.7-expressing cells. The syncropatch 384PE has the potential to record from 384 cells at a time. 100-ms pulses from −100 mV to −10 mV were applied at a frequency of 0.2 Hz and various concentrations of PhlTx1 were applied to the cells. An example of a Nav1.7 current recording is illustrated in Figure 6A along with the effect of 100 nM PhlTx1. It is of interest to note that current inhibition develops over time at this PhlTx1 concentration that is above 50% at the end of a 13-min application time. […] Note that the highest achievable inhibition was 85%–92% for the two most efficient concentrations (333 nM and 1 μM). The time constant of inhibition was concentration-dependent as expected and could be fitted with decreasing mono-exponentials with time constants of 253 s (33 nM, n = 4), 159 s (100 nM, n = 8), 97 s (333 nM, n = 6) and 36 s (1 μM, n = 8). […] Using a manual patch clamp, which is better suited to investigate current recovery from block than an automated patch clamp that requires several washing steps, we investigated the reversibility properties of a PhlTx1 block. […] After 16 min of washout of 100 nM PhlTx1, we observed a maximum of 32% recovery of the blocked current that occurred with a time constant of 303 s. Since Nav1.4 and Nav1.6 were the two most sensitive channels to the PhlTx1 block, we also performed dose-response curves for these two channels with the automated patch clamp system.
# Figure 6 PhlTx1 inhibition of Nav1.7 channels expressed in a mammalian cell line. […]
# [3] = target: T2, hNav1.6 (Homo sapiens, UniProt Q9UQD0); assay: Automated patch-clamp dose-response on hNav1.6 expressed in HEK293 cells; conditions: 15 to 23 cells per concentration, read-out: calculated IC50
# T2 construct: expressed in transfected cells; host or cells: HEK293 cells
# Text: Following our initial screen for the selectivity of synthetic PhlTx1 and the discovery that Nav1.7 was the main target, we decided to further evaluate the activity of PhlTx1. We used a CHO mammalian cell line expressing the human Nav1.7 instead of Xenopus oocytes for the pharmacological evaluation. To this end, we used an automated patch-clamp system, the Nanion syncropatch 384PE, and a standardized robotic method from Beckmann to apply PhlTx1 in the recording chambers and collect the kinetic information of Nav1.7 current from a high number of Nav1.7-expressing cells. The syncropatch 384PE has the potential to record from 384 cells at a time. 100-ms pulses from −100 mV to −10 mV were applied at a frequency of 0.2 Hz and various concentrations of PhlTx1 were applied to the cells. An example of a Nav1.7 current recording is illustrated in Figure 6A along with the effect of 100 nM PhlTx1. […]
# PhlTx1 and other Nav1.7-acting toxins were investigated on CHO cells expressing the human Nav1.7 channel using the Automated patch-clamp system from Nanion (München, Germany), the SyncroPatch 384PE. […] Percentages of current inhibitions were measured at the end of a 12- to 15-min application time (12-min for fast blocking toxins; 15-min for slow blocking ones). […]
# T1 sequence (Q15858 whole entry): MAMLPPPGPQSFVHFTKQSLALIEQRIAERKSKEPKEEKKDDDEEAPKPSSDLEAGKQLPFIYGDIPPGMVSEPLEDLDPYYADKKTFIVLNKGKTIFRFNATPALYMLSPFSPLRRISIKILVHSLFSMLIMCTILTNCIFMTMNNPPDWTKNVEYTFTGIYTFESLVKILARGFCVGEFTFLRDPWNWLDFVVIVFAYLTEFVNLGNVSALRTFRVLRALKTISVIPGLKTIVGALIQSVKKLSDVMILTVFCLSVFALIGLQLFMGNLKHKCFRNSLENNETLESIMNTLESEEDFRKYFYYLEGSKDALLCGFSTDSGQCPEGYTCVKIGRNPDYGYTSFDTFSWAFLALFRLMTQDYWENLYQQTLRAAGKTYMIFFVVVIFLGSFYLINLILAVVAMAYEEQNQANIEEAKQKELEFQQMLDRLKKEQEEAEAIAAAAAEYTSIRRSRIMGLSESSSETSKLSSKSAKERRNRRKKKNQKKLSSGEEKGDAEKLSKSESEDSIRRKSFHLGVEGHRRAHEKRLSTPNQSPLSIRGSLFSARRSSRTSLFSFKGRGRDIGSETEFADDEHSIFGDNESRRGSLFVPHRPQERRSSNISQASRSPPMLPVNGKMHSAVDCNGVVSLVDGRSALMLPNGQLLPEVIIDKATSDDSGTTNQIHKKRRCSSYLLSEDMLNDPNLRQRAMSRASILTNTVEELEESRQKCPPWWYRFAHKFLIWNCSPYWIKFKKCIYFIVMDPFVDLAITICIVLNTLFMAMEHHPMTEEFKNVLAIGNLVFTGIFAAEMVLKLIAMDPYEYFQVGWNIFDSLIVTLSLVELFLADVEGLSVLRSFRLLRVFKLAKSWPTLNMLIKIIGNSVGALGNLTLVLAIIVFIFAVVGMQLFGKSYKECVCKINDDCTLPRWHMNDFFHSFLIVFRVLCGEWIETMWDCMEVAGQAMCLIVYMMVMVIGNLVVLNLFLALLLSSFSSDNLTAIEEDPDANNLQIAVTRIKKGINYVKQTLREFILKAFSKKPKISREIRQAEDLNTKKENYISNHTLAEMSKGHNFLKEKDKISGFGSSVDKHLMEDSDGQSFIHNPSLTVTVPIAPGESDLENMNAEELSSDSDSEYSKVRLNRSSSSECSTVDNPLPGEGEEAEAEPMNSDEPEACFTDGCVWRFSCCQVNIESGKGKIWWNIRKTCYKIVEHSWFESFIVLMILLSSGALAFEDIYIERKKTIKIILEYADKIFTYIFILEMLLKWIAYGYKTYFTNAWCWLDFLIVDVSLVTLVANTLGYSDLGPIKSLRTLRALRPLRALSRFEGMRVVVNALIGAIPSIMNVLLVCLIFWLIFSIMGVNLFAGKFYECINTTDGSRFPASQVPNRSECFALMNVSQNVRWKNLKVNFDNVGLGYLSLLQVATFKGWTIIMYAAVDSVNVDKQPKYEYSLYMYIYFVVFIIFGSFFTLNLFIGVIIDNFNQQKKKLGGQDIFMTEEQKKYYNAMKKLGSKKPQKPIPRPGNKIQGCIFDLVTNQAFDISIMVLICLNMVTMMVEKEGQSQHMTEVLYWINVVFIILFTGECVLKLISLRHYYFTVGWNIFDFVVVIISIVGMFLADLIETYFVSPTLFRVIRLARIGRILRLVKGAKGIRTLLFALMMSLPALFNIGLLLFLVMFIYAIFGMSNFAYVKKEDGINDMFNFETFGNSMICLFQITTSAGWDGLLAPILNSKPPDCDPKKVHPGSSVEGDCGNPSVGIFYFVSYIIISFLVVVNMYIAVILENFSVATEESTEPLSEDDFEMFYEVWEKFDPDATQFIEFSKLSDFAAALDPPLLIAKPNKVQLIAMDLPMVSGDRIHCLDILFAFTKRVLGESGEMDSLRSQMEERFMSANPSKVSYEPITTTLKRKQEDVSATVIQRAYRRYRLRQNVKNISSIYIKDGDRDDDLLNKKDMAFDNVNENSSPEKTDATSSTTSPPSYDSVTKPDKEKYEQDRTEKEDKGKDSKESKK
# T2 sequence (Q9UQD0 whole entry): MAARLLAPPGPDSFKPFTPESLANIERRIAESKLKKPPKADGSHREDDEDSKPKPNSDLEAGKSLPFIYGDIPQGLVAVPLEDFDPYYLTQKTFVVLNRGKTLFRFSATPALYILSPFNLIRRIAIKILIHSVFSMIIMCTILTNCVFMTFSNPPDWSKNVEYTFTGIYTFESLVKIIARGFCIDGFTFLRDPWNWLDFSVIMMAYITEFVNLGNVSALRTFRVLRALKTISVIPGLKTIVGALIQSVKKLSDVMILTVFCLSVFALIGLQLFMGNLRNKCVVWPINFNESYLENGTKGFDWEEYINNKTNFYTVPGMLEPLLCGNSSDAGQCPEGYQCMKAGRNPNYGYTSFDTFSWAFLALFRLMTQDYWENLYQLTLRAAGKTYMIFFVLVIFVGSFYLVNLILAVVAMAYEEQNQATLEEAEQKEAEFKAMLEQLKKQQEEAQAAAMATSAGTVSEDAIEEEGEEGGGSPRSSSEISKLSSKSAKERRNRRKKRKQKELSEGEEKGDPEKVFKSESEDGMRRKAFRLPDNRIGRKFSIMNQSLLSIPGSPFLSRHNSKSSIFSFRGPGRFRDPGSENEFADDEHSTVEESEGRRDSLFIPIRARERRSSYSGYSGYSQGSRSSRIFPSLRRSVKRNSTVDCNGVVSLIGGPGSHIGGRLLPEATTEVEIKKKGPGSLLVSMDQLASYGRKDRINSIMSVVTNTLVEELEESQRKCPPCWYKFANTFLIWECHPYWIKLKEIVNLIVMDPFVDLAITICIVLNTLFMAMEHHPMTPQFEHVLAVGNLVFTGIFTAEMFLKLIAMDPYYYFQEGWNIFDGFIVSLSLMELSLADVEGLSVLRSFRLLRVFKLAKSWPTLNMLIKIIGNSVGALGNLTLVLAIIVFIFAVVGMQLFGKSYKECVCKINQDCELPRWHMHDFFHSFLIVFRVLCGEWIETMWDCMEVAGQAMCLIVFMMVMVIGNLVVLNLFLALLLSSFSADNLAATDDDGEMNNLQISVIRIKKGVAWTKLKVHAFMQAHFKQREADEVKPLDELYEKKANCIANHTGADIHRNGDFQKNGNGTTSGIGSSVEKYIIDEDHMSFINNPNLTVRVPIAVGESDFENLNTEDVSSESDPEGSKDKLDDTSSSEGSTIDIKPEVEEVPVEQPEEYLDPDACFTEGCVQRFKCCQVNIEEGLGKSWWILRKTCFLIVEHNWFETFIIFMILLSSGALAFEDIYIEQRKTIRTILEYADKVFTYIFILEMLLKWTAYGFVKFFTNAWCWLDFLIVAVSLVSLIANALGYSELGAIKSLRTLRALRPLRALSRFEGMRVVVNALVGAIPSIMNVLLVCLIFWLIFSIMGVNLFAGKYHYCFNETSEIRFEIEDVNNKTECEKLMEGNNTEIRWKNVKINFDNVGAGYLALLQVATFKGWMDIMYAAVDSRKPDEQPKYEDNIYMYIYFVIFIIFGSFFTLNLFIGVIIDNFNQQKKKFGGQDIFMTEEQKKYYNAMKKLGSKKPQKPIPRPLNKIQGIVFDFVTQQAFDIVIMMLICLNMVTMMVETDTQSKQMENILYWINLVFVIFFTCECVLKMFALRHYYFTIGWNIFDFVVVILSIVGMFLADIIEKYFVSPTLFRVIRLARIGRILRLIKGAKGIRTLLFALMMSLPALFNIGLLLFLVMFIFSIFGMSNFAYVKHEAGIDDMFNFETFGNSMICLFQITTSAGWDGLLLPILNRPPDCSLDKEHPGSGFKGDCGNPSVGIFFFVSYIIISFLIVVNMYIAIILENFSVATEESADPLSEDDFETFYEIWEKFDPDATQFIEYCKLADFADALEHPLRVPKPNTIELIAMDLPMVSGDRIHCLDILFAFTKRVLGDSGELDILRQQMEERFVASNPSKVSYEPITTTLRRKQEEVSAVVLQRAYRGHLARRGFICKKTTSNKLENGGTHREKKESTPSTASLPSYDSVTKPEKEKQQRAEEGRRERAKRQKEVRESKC
structure (smiles),measurement,setting,value
"CC(C)C[C@@H]1NC(=O)[C@@H](NC(=O)[C@H](C)N)CSSC[C@@H]2NC(=O)[C@@H]3CSSC[C@@H](C(=O)N[C@@H](CCCNC(=N)N)C(=O)N[C@@H](Cc4ccc(O)cc4)C(=O)N[C@@H](CCCCN)C(=O)N[C@@H](CC(C)C)C(=O)N[C@@H](Cc4ccccc4)C(=O)O)NC(=O)[C@H](Cc4c[nH]c5ccccc45)NC(=O)[C@@H]4CCCN4C(=O)[C@H](Cc4ccc(O)cc4)NC(=O)[C@H](CCCCN)NC(=O)[C@H](Cc4c[nH]c5ccccc45)NC(=O)[C@H](CCC(=O)O)NC(=O)[C@H](CSSC[C@H](NC(=O)[C@H](CO)NC(=O)[C@H](CC(=O)O)NC(=O)[C@H](Cc4c[nH]c5ccccc45)NC(=O)[C@H](CCC(N)=O)NC(=O)CNC1=O)C(=O)N[C@@H](CC(=O)O)C(=O)N1CCC[C@H]1C(=O)N[C@@H](CCCCN)C(=O)N[C@@H](C)C(=O)N[C@@H](CO)C(=O)N[C@@H](CCCCN)C(=O)N3)NC(=O)[C@H](C)NC(=O)[C@H](Cc1ccc(O)cc1)NC(=O)[C@H](CC(N)=O)NC(=O)[C@@H]1CCCN1C2=O [PhlTx1, Phlotoxin-1] (H-ACLGQWDSCDPKASKCCPNYACEWKYPWCRYKLF-OH; disulfide 2-17, 9-22, 16-29; N-terminus and C-terminus assumed)",current inhibition at the voltage of maximum ion flux,[1],~20%
same,reversibility of block,[2],partially and poorly reversible
same,maximum recovery of the blocked current,"[2]; after 16 min of washout of 100 nM PhlTx1, n = 5 cells",≤ 32%
same,time constant of recovery from block,"[2]; washout of 100 nM PhlTx1, n = 5 cells",303 s
same,IC50,[3],> 3 µM
